Measured values taken from patent US8455688B2, “HDAC inhibitors” (Lixte Biotechnology, Inc., priority 2007, dated 2013).
Values after ≈ are worked out from the molar mass of the structure shown. Read-outs that look alike come from different tables or passages of the source.

What was measured:
S. apiospermum = assay: Broth dilution antifungal susceptibility testing, S. apiospermum; format: cell-based, Pseudallescheria boydii; conditions: Scedosporium apiospermum, 80% inhibition, read-out: minimum inhibitory concentration (MIC)
Procedure: (§1) A total of 23 isolates were tested to include 3 Candida albicans, 3 Candida glabrata, 3 Cryptococcus neoformans, 3 Aspergillus fumigatus, 3 Rhizopus oryzae, 3, Fusarium solani, 3 Pseudallescheria boydii, and 2 […]. All isolates were clinical isolates submitted to the Fungus Testing Laboratory for evaluation. Antifungal susceptibility testing was accomplished according to the methods outlined in the National Committee for Clinical Laboratory Standards, M-27A2, Reference Method for Broth Dilution Antifungal Susceptibility Testing of Yeasts; Approved Standard, and M38-A “Reference Method for Broth Dilution Antifungal Susceptibility Testing of Conidium-Forming Filamentous Fungi; Approved Standard”. This includes testing in RPMI-1640 with glutamine and without bicarbonate, an inoculum size of 0.5-2.5×10^3 for yeasts or […] for moulds, and incubation at 35° C. for 24 and 48 hours. […] Drug concentrations were 0.125-64 μg/ml. A 10 mg portion of each powder was weighed out and added to 1 ml of 100% DMSO for compound 205. The resulting concentration of […] was diluted to a working concentration of 6400 μg/ml for compound 205 in 100% DMSO. All subsequent dilutions were also made using the respective diluents. Final testing concentrations ranged from 0.125-64 μg/ml. The NCCLS recommended medium RPMI-1640 (Hardy Diagnostics, Santa Monica, Calif.) was utilized as the test medium. All isolates in this study were clinical isolates received in the Fungus Testing Laboratory for standard antifungal susceptibility testing and/or identification. Isolates, which were not sent for identification, were confirmed to assure testing integrity. A total of 23 were tested to include 3 Candida albicans, 3 Candida glabrata, 3 Cryptococcus neoformans, 3 Aspergillus fumigatus, 3 Rhizopus oryzae, 3, Fusarium solani, 3 Pseudallescheria boydii, and 2 […]. Minimum inhibitory concentrations (MIC) were determined at the first 24-hour interval where growth could be determined in the drug-free control tube.

C. neoformans = assay: Broth dilution antifungal susceptibility testing, C. neoformans; format: cell-based; conditions: Cryptococcus neoformans, 50% reduction in turbidity, read-out: minimum inhibitory concentration (MIC)
Procedure: as §1

T. rubrum = assay: Broth dilution antifungal susceptibility testing, T. rubrum; format: cell-based, Trichophyton rubrum; conditions: Trichophyton rubrum, 80% inhibition, read-out: minimum inhibitory concentration (MIC)
Procedure: as §1

C. glabrata = assay: Broth dilution antifungal susceptibility testing, C. glabrata; format: cell-based, Candida glabrata; conditions: Nakaseomyces glabratus, 50% reduction in turbidity, read-out: minimum inhibitory concentration (MIC)
Procedure: as §1

A. fumigatus = assay: Broth dilution antifungal susceptibility testing, A. fumigatus; format: cell-based, Aspergillus fumigatus; conditions: Aspergillus fumigatus, 80% inhibition, read-out: minimum inhibitory concentration (MIC)
Procedure: as §1

CP Control = assay: Broth dilution antifungal susceptibility testing, CP Control; format: cell-based; conditions: read-out: minimum inhibitory concentration (MIC)
Procedure: as §1

R. arrhizus = assay: Broth dilution antifungal susceptibility testing, R. arrhizus; format: cell-based, Rhizopus oryzae; conditions: Rhizopus arrhizus, 80% inhibition, read-out: minimum inhibitory concentration (MIC)
Procedure: as §1

F. solani = assay: Broth dilution antifungal susceptibility testing, F. solani; format: cell-based; conditions: Fusarium solani, 80% inhibition, read-out: minimum inhibitory concentration (MIC)
Procedure: as §1

C. albicans = assay: Broth dilution antifungal susceptibility testing, C. albicans; format: cell-based, Candida albicans; conditions: Candida albicans, 50% reduction in turbidity, read-out: minimum inhibitory concentration (MIC)
Procedure: as §1

[1] = 24 h, isolate 07-1333, 24 hours
[2] = 24 h, isolate 07-1502, 24 hours
[3] = 24 h, isolate 07-1601, 24 hours
[4] = 48 h, isolate 07-1333, 48 hours
[5] = 48 h, isolate 07-1502, 48 hours
[6] = 48 h, isolate 07-1601, 48 hours
[7] = 24 h, isolate 07-2665, 24 hours
[8] = 24 h, isolate 07-2737, 24 hours
[9] = 24 h, isolate 07-2829, 24 hours
[10] = 48 h, isolate 07-2665, 48 hours
[11] = 48 h, isolate 07-2737, 48 hours
[12] = 48 h, isolate 07-2829, 48 hours
[13] = 24 h, isolate 07-1743, 24 hours
[14] = 24 h, isolate 07-2055, 24 hours
[15] = 48 h, isolate 07-1743, 48 hours
[16] = 48 h, isolate 07-2055, 48 hours
[17] = 24 h, isolate 07-2964, 24 hours
[18] = 24 h, isolate 07-2965, 24 hours
[19] = 24 h, isolate 07-3013, 24 hours
[20] = 48 h, isolate 07-2964, 48 hours
[21] = 48 h, isolate 07-2965, 48 hours
[22] = 48 h, isolate 07-3013, 48 hours
[23] = 24 h, isolate 06-4126, 24 hours
[24] = 24 h, isolate 07-2039, 24 hours
[25] = 48 h, isolate 06-4126, 48 hours
[26] = 48 h, isolate 07-2039, 48 hours
[27] = 24 h, isolate 07-1870, 24 hours
[28] = 24 h, isolate 07-2044, 24 hours
[29] = 24 h, isolate 07-2078, 24 hours
[30] = 48 h, isolate 07-1870, 48 hours
[31] = 48 h, isolate 07-2044, 48 hours
[32] = 48 h, isolate 07-2078, 48 hours
[33] = 24 h, isolate 07-1399, 24 hours
[34] = 24 h, isolate 07-1755, 24 hours
[35] = 24 h, isolate 07-1867, 24 hours
[36] = 48 h, isolate 07-1399, 48 hours
[37] = 48 h, isolate 07-1755, 48 hours
[38] = 48 h, isolate 07-1867, 48 hours
[39] = 24 h, isolate 07-3006, 24 hours
[40] = 24 h, isolate 07-3011, 24 hours
[41] = 24 h, isolate 07-3012, 24 hours
[42] = 48 h, isolate 07-3006, 48 hours
[43] = 48 h, isolate 07-3011, 48 hours
[44] = 48 h, isolate 07-3012, 48 hours

## O=C(NCCCCCCNC(=O)c1ccccc1S)c1ccccc1S [Compound 204, Bis-1,6-(2-mercaptobenzoylamino)hexane]
S. apiospermum; [1]
  MIC: 0.5 µg/mL (≈ 1.29 µM)
S. apiospermum; [2]
  MIC: 2 µg/mL (≈ 5.15 µM)
S. apiospermum; [3]
  MIC: < 0.125 µg/mL
S. apiospermum; [4]
  MIC: 1 µg/mL (≈ 2.57 µM)
S. apiospermum; [5]
  MIC: 2 µg/mL (≈ 5.15 µM)
S. apiospermum; [6]
  MIC: 0.5 µg/mL (≈ 1.29 µM)
C. neoformans; [7]
  MIC: 4 µg/mL (≈ 10.3 µM)
C. neoformans; [8]
  MIC: > 64 µg/mL
C. neoformans; [9]
  MIC: > 64 µg/mL
C. neoformans; [10]
  MIC: 4 µg/mL (≈ 10.3 µM)
C. neoformans; [11]
  MIC: > 64 µg/mL
C. neoformans; [12]
  MIC: > 64 µg/mL
T. rubrum; [13]
  MIC: 1 µg/mL (≈ 2.57 µM)
T. rubrum; [14]
  MIC: 1 µg/mL (≈ 2.57 µM)
T. rubrum; [15]
  MIC: 1 µg/mL (≈ 2.57 µM)
T. rubrum; [16]
  MIC: 1 µg/mL (≈ 2.57 µM)
C. glabrata; [17]
  MIC: > 64 µg/mL
C. glabrata; [18]
  MIC: > 64 µg/mL
C. glabrata; [19]
  MIC: > 64 µg/mL
C. glabrata; [20]
  MIC: > 64 µg/mL
C. glabrata; [21]
  MIC: > 64 µg/mL
C. glabrata; [22]
  MIC: > 64 µg/mL
A. fumigatus; 24 h, isolate 05-388, 24 hours
  MIC: 2 µg/mL (≈ 5.15 µM)
A. fumigatus; [23]
  MIC: 1 µg/mL (≈ 2.57 µM)
A. fumigatus; [24]
  MIC: 1 µg/mL (≈ 2.57 µM)
A. fumigatus; 48 h, isolate 05-388, 48 hours
  MIC: > 64 µg/mL
A. fumigatus; [25]
  MIC: > 64 µg/mL
A. fumigatus; [26]
  MIC: > 64 µg/mL
CP Control; 24 hours
  MIC: 8 µg/mL (≈ 20.6 µM)
CP Control; 48 hours
  MIC: > 64 µg/mL
R. arrhizus; [27]
  MIC: > 64 µg/mL
R. arrhizus; [28]
  MIC: > 64 µg/mL
R. arrhizus; [29]
  MIC: > 64 µg/mL
R. arrhizus; [30]
  MIC: > 64 µg/mL
R. arrhizus; [31]
  MIC: > 64 µg/mL
R. arrhizus; [32]
  MIC: > 64 µg/mL
F. solani; [33]
  MIC: > 64 µg/mL
F. solani; [34]
  MIC: > 64 µg/mL
F. solani; [35]
  MIC: > 64 µg/mL
F. solani; [36]
  MIC: > 64 µg/mL
F. solani; [37]
  MIC: > 64 µg/mL
F. solani; [38]
  MIC: > 64 µg/mL
C. albicans; [39]
  MIC: > 64 µg/mL
C. albicans; [40]
  MIC: > 64 µg/mL
C. albicans; [41]
  MIC: > 64 µg/mL
C. albicans; [42]
  MIC: > 64 µg/mL
C. albicans; [43]
  MIC: > 64 µg/mL
C. albicans; [44]
  MIC: > 64 µg/mL

## COc1ccc(S)c(C(=O)NCCCCCC(=O)Nc2ccccc2)c1 [Compound 211]
S. apiospermum; [1]
  MIC: 2 µg/mL (≈ 5.37 µM)
S. apiospermum; [2]
  MIC: 2 µg/mL (≈ 5.37 µM)
S. apiospermum; [3]
  MIC: 2 µg/mL (≈ 5.37 µM)
S. apiospermum; [4]
  MIC: 4 µg/mL (≈ 10.7 µM)
S. apiospermum; [5]
  MIC: 4 µg/mL (≈ 10.7 µM)
S. apiospermum; [6]
  MIC: 4 µg/mL (≈ 10.7 µM)
C. neoformans; [7]
  MIC: 8 µg/mL (≈ 21.5 µM)
C. neoformans; [8]
  MIC: 8 µg/mL (≈ 21.5 µM)
C. neoformans; [9]
  MIC: 8 µg/mL (≈ 21.5 µM)
C. neoformans; [10]
  MIC: 16 µg/mL (≈ 43 µM)
C. neoformans; [11]
  MIC: 16 µg/mL (≈ 43 µM)
C. neoformans; [12]
  MIC: 16 µg/mL (≈ 43 µM)
T. rubrum; [13]
  MIC: ≤ 0.125 µg/mL
T. rubrum; [14]
  MIC: ≤ 0.125 µg/mL
T. rubrum; [15]
  MIC: ≤ 0.125 µg/mL
T. rubrum; [16]
  MIC: ≤ 0.125 µg/mL
C. glabrata; [17]
  MIC: > 64 µg/mL
C. glabrata; [18]
  MIC: > 64 µg/mL
C. glabrata; [19]
  MIC: > 64 µg/mL
C. glabrata; [20]
  MIC: > 64 µg/mL
C. glabrata; [21]
  MIC: > 64 µg/mL
C. glabrata; [22]
  MIC: > 64 µg/mL
A. fumigatus; 24 h, isolate 05-388, 24 hours
  MIC: 2 µg/mL (≈ 5.37 µM)
A. fumigatus; [23]
  MIC: 2 µg/mL (≈ 5.37 µM)
A. fumigatus; [24]
  MIC: 2 µg/mL (≈ 5.37 µM)
A. fumigatus; 48 h, isolate 05-388, 48 hours
  MIC: > 64 µg/mL
A. fumigatus; [25]
  MIC: > 64 µg/mL
A. fumigatus; [26]
  MIC: > 64 µg/mL
R. arrhizus; [27]
  MIC: 4 µg/mL (≈ 10.7 µM)
R. arrhizus; [28]
  MIC: 4 µg/mL (≈ 10.7 µM)
R. arrhizus; [29]
  MIC: 8 µg/mL (≈ 21.5 µM)
R. arrhizus; [30]
  MIC: > 64 µg/mL
R. arrhizus; [31]
  MIC: > 64 µg/mL
R. arrhizus; [32]
  MIC: > 64 µg/mL
F. solani; [33]
  MIC: 4 µg/mL (≈ 10.7 µM)
F. solani; [34]
  MIC: 4 µg/mL (≈ 10.7 µM)
F. solani; [35]
  MIC: 2 µg/mL (≈ 5.37 µM)
F. solani; [36]
  MIC: 8 µg/mL (≈ 21.5 µM)
F. solani; [37]
  MIC: 8 µg/mL (≈ 21.5 µM)
F. solani; [38]
  MIC: 8 µg/mL (≈ 21.5 µM)
C. albicans; [39]
  MIC: > 64 µg/mL
C. albicans; [40]
  MIC: > 64 µg/mL
C. albicans; [41]
  MIC: > 64 µg/mL
C. albicans; [42]
  MIC: > 64 µg/mL
C. albicans; [43]
  MIC: > 64 µg/mL
C. albicans; [44]
  MIC: > 64 µg/mL
